According to patent US8492401B2, “Thiazolopyridine sirtuin modulating compounds” (Sirtris Pharmaceuticals, priority 2008, dated 2013):

Biological target: T1, SIRT1 (Homo sapiens, UniProt Q96EB6)
T1 sequence (Q96EB6 1-747): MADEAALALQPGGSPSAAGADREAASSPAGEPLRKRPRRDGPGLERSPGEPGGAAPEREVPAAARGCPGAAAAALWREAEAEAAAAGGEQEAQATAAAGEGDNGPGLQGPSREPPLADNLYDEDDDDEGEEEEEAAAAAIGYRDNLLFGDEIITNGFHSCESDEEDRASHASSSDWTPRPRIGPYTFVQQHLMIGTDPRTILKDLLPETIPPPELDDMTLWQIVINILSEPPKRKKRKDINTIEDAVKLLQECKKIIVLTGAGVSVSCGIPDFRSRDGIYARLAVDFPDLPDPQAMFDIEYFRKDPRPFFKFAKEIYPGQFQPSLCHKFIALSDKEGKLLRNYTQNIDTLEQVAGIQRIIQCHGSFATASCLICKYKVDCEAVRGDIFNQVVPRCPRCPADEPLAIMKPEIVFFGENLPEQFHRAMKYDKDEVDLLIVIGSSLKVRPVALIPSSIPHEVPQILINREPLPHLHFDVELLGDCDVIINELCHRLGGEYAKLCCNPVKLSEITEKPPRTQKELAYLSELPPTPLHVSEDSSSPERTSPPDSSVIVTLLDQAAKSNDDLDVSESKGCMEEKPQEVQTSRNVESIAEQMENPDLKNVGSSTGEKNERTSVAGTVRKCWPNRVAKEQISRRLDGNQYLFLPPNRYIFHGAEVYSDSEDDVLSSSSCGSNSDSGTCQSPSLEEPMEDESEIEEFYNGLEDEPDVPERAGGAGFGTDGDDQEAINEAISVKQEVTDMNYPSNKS
Assay: Mass spectrometry based assay to identify modulators (activators) of SIRT1 activity
Format: biochemical
Details: 0.5 μM peptide substrate, 120 μM βNAD+, 10 nM SIRT1, 25 minutes at 25° C.; for EC1.5: SIRT1 activation
From the text: A mass spectrometry based assay was used to identify modulators of SIRT1 activity. The mass spectrometry based assay utilizes a peptide having 20 amino acid residues as follows: Ac-EE-K(biotin)-GQSTSSHSK(Ac)NleSTEG-K(5TMR)-EE-NH2 (SEQ ID NO: 1) wherein K(Ac) is an acetylated lysine residue and Nle is a norleucine. The peptide is labeled with the fluorophore 5TMR (excitation 540 nm/emission 580 nm) at the C-terminus. The sequence of the peptide substrate is based on p53 with several modifications. In addition, the methionine residue naturally present in the sequence was replaced with the norleucine because the methionine may be susceptible to oxidation during synthesis and purification.
The mass spectrometry assay is conducted as follows: 0.5 μM peptide substrate and 120 μM βNAD^+ is incubated with 10 nM SIRT1 for 25 minutes at 25° C. in a reaction buffer (50 mM Tris-acetate pH 8, 137 mM NaCl, 2.7 mM KCl, 1 mM MgCl2, 5 mM DTT, 0.05% BSA). Test compounds may be added to the reaction as described above. […] After the 25 minute incubation with SIRT1, 10 μL of 10% formic acid is added to stop the reaction. Reactions are sealed and frozen for later mass spec analysis. Determination of the mass of the substrate peptide allows for precise determination of the degree of acetylation (i.e. starting material) as compared to deacetylated peptide (product).
A control for inhibition of sirtuin activity is conducted by adding 1 μL of 500 mM nicotinamide as a negative control at the start of the reaction (e.g., permits determination of maximum sirtuin inhibition). A control for activation of sirtuin activity is conducted using 10 nM of sirtuin protein, with 1 μL of DMSO in place of compound, to determine the amount of deacetylation of the substrate at a given timepoint within the linear range of the assay. This timepoint is the same as that used for test compounds and, within the linear range, the endpoint represents a change in velocity.
For the above assay, SIRT1 protein was expressed and purified as follows. […] The protein was expressed by induction with 1 mM IPTG as an N-terminal His-tag fusion protein at 18° C. overnight and harvested at 30,000×g. Cells were lysed with lysozyme in lysis buffer (50 mM Tris-HCl, 2 mM Tris[2-carboxyethyl]phosphine (TCEP), 10 μM ZnCl2, 200 mM NaCl) and further treated with sonication for 10 min for complete lysis. The protein was purified over a Ni-NTA column (Amersham) and fractions containing pure protein were pooled, concentrated and run over a sizing column (Sephadex S200 26/60 global). The peak containing soluble protein was collected and run on an Ion-exchange column (MonoQ). Gradient elution (200 mM-500 mM NaCl) yielded pure protein. This protein was concentrated and dialyzed against dialysis buffer (20 mM Tris-HCl, 2 mM TCEP) overnight. The protein was aliquoted and frozen at −80° C. until further use.
Sirtuin modulating compounds that activated SIRT1 were identified using the assay described above and are shown below in Table 1. The EC1.5 values for the activating compounds are represented by A (EC1.5≦1 uM), B (EC1.5>1 and ≦10 uM), or C (EC1.5>10 uM). The percent maximum fold activation is represented by A (Fold activation≧300%), B (Fold Activation≧150% and <300%), or C (Fold Activation<150%).

Row | SMILES | FOLD ACT. (percent maximum fold activation) | EC1.5
1 | COCC#Cc1sc(-c2ccccc2)nc1C(=O)Nc1ccccc1-c1nc2cc(CN3CCCC3)cnc2s1 [Compound 5, 5-(3-methoxyprop-1-ynyl)-2-phenyl-N-(2-(6-(pyrrolidin-1-ylmethyl)thiazolo[5,4-b]pyridin-2-yl)phenyl)thiazole-4-carboxamide] | B (Fold Activation≧150% and <300%) | A (EC1.5≦1 uM)
2 | O=C(Nc1ccccc1-c1nc2cc(CN3CCCC3)cnc2s1)c1csc(-c2ccccc2)n1 [Compound 3, 2-phenyl-N-(2-(6-(pyrrolidin-1-ylmethyl)thiazolo[5,4-b]pyridin-2-yl)phenyl)thiazole-4-carboxamide] | B (Fold Activation≧150% and <300%) | A (EC1.5≦1 uM)
3 | O=C(Nc1ccccc1-c1nc2cc(CN3CCCC3)cnc2s1)c1nc(-c2ccccc2)cs1 [Compound 22, 4-phenyl-N-(2-(6-(pyrrolidin-1-ylmethyl)thiazolo[5,4-b]pyridin-2-yl)phenyl)thiazole-2-carboxamide] | B (Fold Activation≧150% and <300%) | A (EC1.5≦1 uM)

Results, then the compound that gave them:

Row | FOLD ACT. (percent maximum fold activation) | EC1.5 | SMILES
4 | B (Fold Activation≧150% and <300%) | A (EC1.5≦1 uM) | O=C(Nc1ccccc1-c1nc2cccnc2s1)c1nc(-c2ccccc2)sc1CN1CCOCC1 [Compound 10, 5-(morpholinomethyl)-2-phenyl-N-(2-(thiazolo[5,4-b]pyridin-2-yl)phenyl)thiazole-4-carboxamide]
5 | C (Fold Activation<150%) | C (EC1.5>10 uM) | COCCN1CCN(Cc2oc(-c3ccccc3)nc2C(=O)Nc2ccccc2-c2nc3cccnc3s2)CC1 [Compound 19, 5-((4-(2-methoxyethyl)piperazin-1-yl)methyl)-2-phenyl-N-(2-(thiazolo[5,4-b]pyridin-2-yl)phenyl)oxazole-4-carboxamide]
6 | B (Fold Activation≧150% and <300%) | A (EC1.5≦1 uM) | COCCN1CCN(CCCc2sc(-c3ccccc3)nc2C(=O)Nc2ccccc2-c2nc3cccnc3s2)CC1 [Compound 7, 5-(3-(4-(2-methoxyethyl)piperazin-1-yl)propyl)-2-phenyl-N-(2-(thiazolo[5,4-b]pyridin-2-yl)phenyl)thiazole-4-carboxamide]
